Assay results from ChEMBL document CHEMBL5727875, “Substituted bicycle heterocyclic derivatives useful as ROMK channel inhibitors” (2020).

Target: T1, ATP-sensitive inward rectifier potassium channel 1 (Homo sapiens, UniProt P48048)
T1 sequence (P48048 whole entry): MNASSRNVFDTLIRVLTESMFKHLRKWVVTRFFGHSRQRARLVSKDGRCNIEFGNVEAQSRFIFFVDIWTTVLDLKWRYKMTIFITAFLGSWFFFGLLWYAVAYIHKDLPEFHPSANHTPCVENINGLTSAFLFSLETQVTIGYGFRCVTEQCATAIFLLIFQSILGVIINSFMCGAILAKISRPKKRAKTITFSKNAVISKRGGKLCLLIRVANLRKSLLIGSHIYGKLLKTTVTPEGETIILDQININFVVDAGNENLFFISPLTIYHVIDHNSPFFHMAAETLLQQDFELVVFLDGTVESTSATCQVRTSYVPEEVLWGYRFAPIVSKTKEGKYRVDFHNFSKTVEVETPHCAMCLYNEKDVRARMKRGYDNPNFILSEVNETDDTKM
Experiment: Electrophysiology Assay: The coverslip plated with cells was placed in the experiment chamber perfused with bath solution composed of (in mM): 135 NaCl, 5 KCl, 2 CaCl2), 1 MgCl2, 10 HEPES, 5 Glucose (pH 7.4). Patch pipettes with resistance between 2-5 Megaohms, when filled with a solution containing (in mM): 135 KCl, 1 EGTA, 1 MgCl2, 10 HEPES, 2 Na2ATP (pH 7.3), were used to form gigaseals. The …

Cc1c([C@@H](O)CNCc2cnn(-c3ccc4oc(=O)n(C)c4c3)c2)ccc2c1COC2=O
IC50: 12 nM
